According to patent US9321795B2, “Use of hydroxycinnamaldehyde glycoside derivatives for treating glomerulonephritis” (National Defense Medical Center, priority 2014, dated 2016):

Key:
spleen cells = assay: Flow cytometry of T cell and B cell activation in spleen cells; type: in vivo, mouse; conditions: LPS induced GN mice, i.p. daily 30 mg/ml, 7 weeks
Procedure: (§1) Experiments were performed on 8-week-old female C57BL/6 mice. The mice were separated into 3 groups at 8-weeks old. One of the groups were injected intravenously with normal saline to be used as normal controls, where the pathological control group and the GN disease treatment group by the cinnamaldehyde derivative of the invention were intraperitoneally injected with […] Salmonella LPS (Sigma, USA) (Am J Physiol Renal Physiol, 296: F1088-1099, 2009; Nephron, 84: 167-176, 2000; Nephron Exp Nephrol, 112: e81-91, 2009) twice a week, continuously for 7 weeks for disease induction. Starting two days before disease induction, the GN disease treatment group was intraperitoneally injected with the cinnamaldehyde derivative of the invention at a daily dose of 30 mg/ml for continuous 7 weeks, while the pathological control group was given placebo daily through intraperitoneal injection. Urine samples were collected in metabolic cages every week. Mice were sacrificed on 7th week after the disease induction. Blood, kidneys, spleen and liver were collected and stored properly for further analysis.
Mice spleens were taken out, grinded, rinsed and centrifuged to obtain spleen cells. To carry out mice inflammation reaction analysis, 1×10^6 cells were taken and reacted with anti-mouse CD3-FITC antibody, anti-mouse […] antibody anti-mouse CD8-PE, anti-mouse CD19-FITC antibody and anti-mouse CD69-PE antibody (all purchased from BD Pharmingen, CA) respectively in the dark under room temperature for 30 minutes, and analyzed with flow cytometry (Beckton Dickinson, Calif.).

glomeruli of GN mice = assay: Renal histopathology (H&E) in LPS induced mouse GN model; type: in vivo; conditions: i.p. daily 30 mg/ml, 7 weeks, FIG. 2
Procedure: as §1
To evaluate the renal histological changes, 10% formalin was used to fix the tissues, and sections were prepared and stained with hematoxylin and eosin (H&E) and observed under microscope. Changes in the tissues were analyzed by semi-quantitation. Items evaluated include: (1) cell density changes in glomerulus; (2) glomerulus fibrosis; (3) cell necrosis in glomerulus; (4) formation of crescent of glomerulonephritis. According to the ratio of glomeruli having pathological changes, 0 to 4 points were given as scores. 25 glomeruli were measured for each group and the sum of the points represents the renal histological changes. Secondly, mesenchymal and renal tubular atrophy, erythrocyte and protein granule sedimentation in renal tubules and mesenchymal inflammation were also evaluated.

caspase-1 [1] = assay: Western blot of renal cortical proteins, caspase-1; type: in vivo, mouse; conditions: LPS induced GN mice, i.p. daily 30 mg/ml, 7 weeks
Procedure: as §1
Renal cortical tissues were cut to pieces and placed in buffer, and grinding with sonication was used to lyse the cells. After centrifugation, the supernatant was preserved, and protein concentration was measured with protein concentration analyzing kit (BCA protein Assay Kit, PIERCE). […]

MyD88 = assay: Reverse-transcription PCR, MyD88 mRNA; type: in vivo, mouse; conditions: LPS induced GN mice, i.p. daily 30 mg/ml, 7 weeks, semi-quantitated, FIG. 6
Procedure: as §1
(§2) Reverse-transcription PCR was used to evaluate and semi-quantitate TLR4 and its following adaptin Myd88 mRNA expression. […]

NLRP3 = assay: Real-time PCR of kidney tissue, NLRP3; type: in vivo, mouse; conditions: LPS induced GN mice, i.p. daily 30 mg/ml, 7 weeks, FIG. 5(A)-(D)
Procedure: as §1
(§3) RNA was extracted from kidney tissues, reverse transcribed to cDNA and Real-Time PCR (Applied Biosystems) was carried out. Items determined include: IL-6, NLRP3, caspase-1, IL-1β and IL-18, where GAPDH gene expression levels were used to carry out the internal correction.

[2] = tested on: LPS induced mouse GN model; assay: Urine protein and serum BUN (renal function) in LPS induced mouse GN model; type: in vivo; conditions: LPS induced GN C57BL/6 mice
Procedure: as §1
Serum blood urea nitrogen (BUN) and proteinuria were used to assess mice kidney function. Serum blood urea nitrogen (BUN) measurement of serum collected through the eye socket was done through a tester (Fuji DRI-CHEM 3000) with a test specimen (Fuju DRI-CHEM SLIDE). […]

caspase-1 [3] = assay: Real-time PCR of kidney tissue, caspase-1; type: in vivo, mouse; conditions: LPS induced GN mice, i.p. daily 30 mg/ml, 7 weeks, FIG. 5(A)-(D)
Procedure: as §1, §3

[4] = Drug safety by weekly weight change of mice; type: in vivo, mouse; conditions: LPS induced GN mice, i.p. daily 30 mg/ml, 7 weeks; for weight change of mice: recorded each week, compared to normal control group, FIG. 7
Procedure: as §1
During the experiment processes, the drug safety of the cinnamaldehyde derivative was assessed through recording the weight change of mice each week.

IL-1β [5] = assay: Mature IL-1β in renal cortical protein (ELISA); type: in vivo, mouse; conditions: LPS induced GN mice, i.p. daily 30 mg/ml, 7 weeks, FIG. 5(H)
Procedure: as §1
(§4) ELISA reader (Bio-Tek, USA) was used to detect OD 450 nm absorption and the values were converted to sample concentration according to the standard curve.

IL-6 = IL-6 protein in kidney tissue (ELISA); type: in vivo, mouse; conditions: LPS induced GN mice, i.p. daily 30 mg/ml, 7 weeks, FIG. 4(D)
Procedure: as §1, §4

NF-κB = assay: Immunohistochemistry of kidney, NF-κB expression; type: in vivo, mouse; conditions: LPS induced GN mice; i.p. daily 30 mg/ml, 7 weeks; IHC; FIG. 4(A),(B)
Procedure: as §1
(§5) In addition, to carry out immunohistochemistry (IHC) analysis, tissue fixation, paraffin-embedding, sectioning, rehydration and antigen retrieval were done with routine procedures, and 3% H2O2 was used to remove endogenous peroxidase. […]

T cell (CD3) = assay: Immunohistochemistry of kidney, T cell (CD3) infiltration; type: in vivo, mouse; conditions: LPS induced GN mice; i.p. daily 30 mg/ml, 7 weeks; IHC; FIG. 3(A),(B),(C)
Procedure: as §1, §5

NF-κB p65 = NF-κB p65 activity in kidney tissues (ELISA); type: in vivo, mouse; conditions: LPS induced GN mice, i.p. daily 30 mg/ml, 7 weeks, FIG. 4(C)
Procedure: as §1, with “Blood, kidneys, spleen and liver were collected and stored properly for further analysis.” left out
Renal cortical tissues were taken and extracted for nuclear protein with nucleus extraction kit (Active Motif, Japan), and nuclear proteins were taken to detect NF-κB p65 activity after protein quantitation. […] Lastly, ELISA reader (Bio-Tek, USA) was used to detect OD 450 nm absorption and the values were converted to sample concentration according to the standard curve.

IL-1β [6] = assay: Real-time PCR of kidney tissue, IL-1β; type: in vivo, mouse; conditions: LPS induced GN mice, i.p. daily 30 mg/ml, 7 weeks, FIG. 5(A)-(D)
Procedure: as §1, §3

IL-18 = assay: Real-time PCR of kidney tissue, IL-18; type: in vivo, mouse; conditions: LPS induced GN mice, i.p. daily 30 mg/ml, 7 weeks, FIG. 5(A)-(D)
Procedure: as §1, §3

macrophage (F4/80) = assay: Immunohistochemistry of kidney, macrophage marker F4/80; type: in vivo, mouse; conditions: LPS induced GN mice; i.p. daily 30 mg/ml, 7 weeks; IHC; vs GN disease group; FIG. 3(A),(D),(E)
Procedure: as §1, §5

TLR4 = assay: Reverse-transcription PCR, TLR4 mRNA; type: in vivo, mouse; conditions: LPS induced GN mice, i.p. daily 30 mg/ml, 7 weeks, semi-quantitated, FIG. 6
Procedure: as §1, §2

O=CC=Cc1ccc(OC2OC(CO)C(O)C(O)C2O)cc1 (centres unmarked) [cinnamaldehyde derivative, 4-hydroxyphenylacrylaldehyde glycoside]
Helper T cells (CD4+) activation ratio in spleen cells (spleen cells; ***p<0.005, FIG. 3(G)): significantly ameliorated
T cell (CD3+) activation in spleen cells (spleen cells; FIG. 3(F)): showed the tendency of reduction
B cell (CD19+) activation in spleen cells (spleen cells; FIG. 3(H)): no significant difference
glomerular fibrosis (glomeruli of GN mice): no fibrosis condition occurrence was observed
glomerular proliferation (glomeruli of GN mice): significantly ameliorated
lymphocyte infiltration (glomeruli of GN mice): reduced
matured caspase-1 expression level (caspase-1 [1]; FIG. 5(E)): higher in the disease group than in the cinnamaldehyde derivative treatment group
pro-caspase-1 expression level (caspase-1 [1]; FIG. 5(E)-(G)): reduced
MyD88 mRNA expression level (MyD88): reduced
NLRP3 gene expression level in kidney tissue (NLRP3): significantly reduced
serum blood urea nitrogen (BUN) ([2]; i.p. daily 30 mg/ml for 7 weeks, vs pathological control group, FIG. 1(B)): significantly lower
urine protein content (proteinuria) ([2]; i.p. daily dose of 30 mg/ml for 7 weeks, vs disease group, *p<0.05, FIG. 1(A)): reduce proteinuria
caspase-1 gene expression level in kidney tissue (caspase-1 [3]): significantly reduced
side-effects in animals ([4]; judged from weight change): did not cause obvious side-effects
weight change of mice ([4]; listed as hydroxycinammaldehde glycoside derivative): does not result in weight loss
weight change of mice ([4]; listed as hydroxycinnamaldehyde derivative): stable increase in their bodyweight
amount of mature IL-1β (IL-1β [5]): significantly decreased
amount of mature IL-1β (IL-1β [5]; listed as hydroxycinammaldehde glycoside derivate): significantly increased in GN disease group compared to hydroxycinammaldehde glycoside derivate treated GN group
IL-6 protein expression level in kidney tissue (IL-6): reduce IL-6 expression
NF-κB expression in kidney tissue (NF-κB): reduce its expression level
T lymphocyte (CD3) infiltration in glomeruli (T cell (CD3)): significantly lowered
NF-κB p65 content (activation) in renal cortical proteins (NF-κB p65): lower its activation level
IL-1β gene expression level in kidney tissue (IL-1β [6]): significantly reduced
IL-18 gene expression level in kidney tissue (IL-18): significantly reduced
macrophage (F4/80) staining in kidney (macrophage (F4/80)): significantly less
TLR4 mRNA expression level (TLR4): reduced
